Results: US20160083397A1, “PARTHENOLIDE DERIVATIVES AND THEIR MODULATION OF PROCESSES CONTROLLED BY REGULATED TRANSLATION” (THE BOARD OF TRUSTEES OF THE UNIVERSITY OF ARKANSAS, priority 2013, published 2016)
One block for each molecule: values may come before it.

Assays:
[1] = tested on: glioblastomoa cell line U87; test: Neurosphere formation, U87; format: cell-based; conditions: lowest dose tested 0.5 μM
Protocol: (§1) The activity of the three test compounds to inhibit neurosphere formation was also tested in a neuroblastoma cell line SHSY5Y and a glioblastomoa cell line U87. All three compounds attenuated neurosphere formation in both cell lines, to varying degrees of efficacy (FIG. 2A,B). […] None of the compounds affected cell viability.

[2] = tested on: neuroblastoma cell line SHSY5Y; test: Neurosphere formation, SHSY5Y; format: cell-based; conditions: lowest dose tested 0.5 μM
Protocol: as §1

Xenopus oocytes = test: Xenopus oocyte maturation assay; format: cell-based; conditions: for Xenopus Oocyte Maturation Assay, With Progesterone: test compound 100 μM, progesterone 2 μg/mL, inhibitor = slowed rate of progesterone-dependent GVBD by 20% or more
Source text: An in vivo Xenopus oocyte maturation assay was used to screen the compounds for their ability to modulate the activity of cell cycle control proteins, mRNA translational control proteins, and/or proteins involved in signaling pathways. In this assay, oocyte maturation (or cell cycle progression) is monitored phenotypically using an image capture system. Oocyte maturation is correlated with the appearance of a white spot at the animal pole of the darkly pigmented animal hemisphere of the oocyte. The white spot appears because the germinal vesicle (i.e., the large nucleus of the oocyte) migrates to the animal pole prior to meiotic germinal vesicle breakdown (GVBD).
Immature stage VI Xenopus oocytes were transferred to wells of a flat bottom 96-well plate containing about 178 μL of L15 culture media. The oocytes were transferred using wide mouth 200 μL pipette tips with minimal transfer of culture medium (e.g., about 20 μL). Generally, the oocytes oriented with the pigmented animal hemisphere facing up due to the higher density of the yolk-containing vegetal hemisphere. Incorrectly orientated oocytes were gently manipulated using a drawn-out capillary tube to rotate them into the correct orientation.
Forty-four test compounds were dissolved in DMSO to make 100× stock solutions. The test compounds were added to the appropriate wells at a final concentration of 100 μM (and 1% DMSO). Control oocytes were exposed to 1% DMSO only (generally the first and last wells of a plate contained the untreated, control oocytes). Sixteen hours later, progesterone was added to each well to stimulate progesterone-dependent oocyte maturation. For this, 2 μL of 1000× stock solution (2 mg/mL in ethanol) was added to the appropriate wells to yield a final concentration of 2 μg/mL. The rate of maturation in the control oocytes (i.e., those in the first and last wells) served as an intra-assay control for time taken for progesterone addition across the multi-well plate.
The 96-well plate was imaged from above (i.e., top-down) using a 36-megapixel Nikon D800 SLR camera with an AF Micro Nikkor 60 mm, f/2.8 lens, mounted on a dedicated copy stand (with adjustable flanking light sources). The plate was imaged prior to and after addition of progesterone (i.e., images were taken at regular intervals over a period of 7 hours). The high resolution images were digitally zoomed after capture to analyze the maturation status of oocytes in individual wells of the plate. Test compounds that slowed the rate of progesterone-dependent GVBD by 20% or more were classified as inhibitors (assessed relative to the time 50% of the population of control, vehicle treated oocytes had undergone GVBD (GVBD50)).
To determine whether the test compounds were able to activate oocyte maturation in a progesterone-independent manner, oocytes were incubated in the presence of the test compound (dissolved in DMSO) or DMSO only. The oocytes were imaged at regular intervals for the evidence of GVBD, or subsets of oocytes were removed at predetermined times and the activation status of key cell cycle control proteins (e.g., pMAP kinase, pCcd2, etc.) was analyzed by Western blotting. For example, activation of pMAP kinase is associated with increased phosphorylation whereas activation of pCdc2 is associated with decreased phosphorylation. Compounds were classified as an activator if they were able to induce GVBD in the absence of added progesterone. Further, compounds were classified as accelerators if they accelerated the rate of progesterone-stimulated GVBD, but were unable to induce GVBD in the absence of progesterone. The criteria for test compounds to be considered accelerators is that they must increase the rate of progesterone-dependent GVBD by 20% or more at one dose (assessed relative to the time 50% of the population of control, vehicle treated oocytes had undergone GVBD (GVBD50)).

MCF-7 cells = test: Mammosphere formation, MCF-7; format: cell-based; conditions: compound present first 3 days, scored day 14 (P2), 50, 5 and 0.5 μM
Source text: Mammosphere culture growth presents a useful indicator of the presence of breast cancer cells with stem cell-like properties. Breast cancer cell lines grown as mammospheres (under non-adherent plating conditions) recapitulate the three-dimensional organization of tumors. Importantly, assessment of stem cell self-renewal capacity can be achieved through dispersion of mammospheres to single cells and subsequent limited dilution replating. To determine whether PNR-5-46, PNR-5-41, or JVM-20 inhibited mammosphere formation in this system, […], and then cultured in the absence of the test compound. At day 7, mammospheres were collected, dispersed to single cells and replated at limiting dilution (P1). Spheroids were scored at day 14 (P2). Mammosphere forming units (MFUs) are defined as spheroid bodies >100 μm (MCF-7 cells) or >65 μm (MDA MB231 cells) diameter after 7 (P1) or 14 (P2) days growth in non-adherent culture.

- melting point: 115 to 117 °C
Molecule: C[C@@]12CCC=C(CO)C3C[C@H]4/C(=C\c5ccccc5)C(=O)O[C@@H]4[C@@]31O2 (stereo partly shown)

Molecule: 13-(4-aminophenyl)parthenolide [PNR-5-41]
- neurosphere formation / stem cell self-renewal [1]: Significant inhibition
- neurosphere formation / stem cell self-renewal [2]: Significant inhibition
- Xenopus Oocyte Maturation Assay, With Progesterone (Xenopus oocytes): Inhibitor
- mammosphere formation relative to DMSO-treated control cells (MCF-7 cells): did not

Molecule: C/C1=C\CC[C@@]2(C)O[C@H]2[C@H]2OC(=O)[C@@H](CNc3nc4ccccc4[nH]3)[C@@H]2CC1 [JVM-9, 13-(2-aminobenzimidazole)parthenolide]
- Xenopus Oocyte Maturation Assay, Without Progesterone (Xenopus oocytes; no progesterone, activator = able to induce GVBD in the absence of added progesterone): Activator

Molecule: CC1=CCCC2(C)OC2C2OC(=O)C(CNCCN3CCOCC3)C2CC1 (stereo not shown) [JVM-11, 13-(aminoethylmorpholino)parthenolide]
- Xenopus Oocyte Maturation Assay, With Progesterone (Xenopus oocytes): Inhibitor
